According to ChEMBL document CHEMBL4840336, “Discovery, Optimization, and Structure-Activity Relationship Study of Novel and Potent RSK4 Inhibitors as Promising Agents for the Treatment of Esophageal Squamous Cell Carcinoma” (J Med Chem, 2021):
Values belong to the molecule of their own block, whether it stands above or below them. Active and inactive are the calls of the source. The calls are words filed in the database; no cut-off is given here.

Experiments:
TE-10 [1] = experiment: Antitumor activity against human TE-10 cells xenografed in nude mouse assessed as tumor growth inhibition at 50 mg/kg, ip administered for 20 consecutive days by caliper method relative to control; assay type: functional; details: TE-10, ip, 480 h, time 20 day, read-out: TGI
[2] = target: T1, Ribosomal protein S6 kinase alpha-2 (Homo sapiens, UniProt Q15349); experiment: Inhibition of full length recombinant GST-tagged human RSK3 expressed in insect cell using biotin-labelled AGAGRSRHSSYPAGT-OH as substrate in presence of ATP
T1 sequence (Q15349 whole entry): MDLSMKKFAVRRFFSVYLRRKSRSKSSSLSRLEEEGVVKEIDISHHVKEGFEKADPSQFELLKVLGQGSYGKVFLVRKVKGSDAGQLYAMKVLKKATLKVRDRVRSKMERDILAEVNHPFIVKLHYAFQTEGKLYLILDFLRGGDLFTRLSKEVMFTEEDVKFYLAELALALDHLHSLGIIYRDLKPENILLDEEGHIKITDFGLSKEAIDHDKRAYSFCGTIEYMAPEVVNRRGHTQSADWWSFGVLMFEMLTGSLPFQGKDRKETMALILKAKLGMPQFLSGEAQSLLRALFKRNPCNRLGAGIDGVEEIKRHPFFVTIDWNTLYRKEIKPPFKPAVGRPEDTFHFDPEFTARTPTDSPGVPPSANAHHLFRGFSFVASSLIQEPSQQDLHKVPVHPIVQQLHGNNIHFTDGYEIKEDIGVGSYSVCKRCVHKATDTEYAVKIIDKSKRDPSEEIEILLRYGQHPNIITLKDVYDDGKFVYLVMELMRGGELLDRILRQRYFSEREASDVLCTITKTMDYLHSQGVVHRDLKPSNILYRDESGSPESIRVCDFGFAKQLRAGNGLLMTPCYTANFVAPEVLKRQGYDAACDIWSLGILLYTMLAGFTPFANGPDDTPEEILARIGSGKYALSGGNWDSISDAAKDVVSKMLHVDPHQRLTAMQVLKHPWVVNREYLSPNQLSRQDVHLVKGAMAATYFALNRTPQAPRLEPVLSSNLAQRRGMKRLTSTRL

[3] = target: T2, Ribosomal protein S6 kinase alpha-1 (Homo sapiens, UniProt Q15418); experiment: Inhibition of full length recombinant His-tagged human RSK1 expressed in baculovirus expression system using biotin-labelled AGAGRSRHSSYPAGT-OH as substrate in presence of ATP
T2 sequence (Q15418 whole entry): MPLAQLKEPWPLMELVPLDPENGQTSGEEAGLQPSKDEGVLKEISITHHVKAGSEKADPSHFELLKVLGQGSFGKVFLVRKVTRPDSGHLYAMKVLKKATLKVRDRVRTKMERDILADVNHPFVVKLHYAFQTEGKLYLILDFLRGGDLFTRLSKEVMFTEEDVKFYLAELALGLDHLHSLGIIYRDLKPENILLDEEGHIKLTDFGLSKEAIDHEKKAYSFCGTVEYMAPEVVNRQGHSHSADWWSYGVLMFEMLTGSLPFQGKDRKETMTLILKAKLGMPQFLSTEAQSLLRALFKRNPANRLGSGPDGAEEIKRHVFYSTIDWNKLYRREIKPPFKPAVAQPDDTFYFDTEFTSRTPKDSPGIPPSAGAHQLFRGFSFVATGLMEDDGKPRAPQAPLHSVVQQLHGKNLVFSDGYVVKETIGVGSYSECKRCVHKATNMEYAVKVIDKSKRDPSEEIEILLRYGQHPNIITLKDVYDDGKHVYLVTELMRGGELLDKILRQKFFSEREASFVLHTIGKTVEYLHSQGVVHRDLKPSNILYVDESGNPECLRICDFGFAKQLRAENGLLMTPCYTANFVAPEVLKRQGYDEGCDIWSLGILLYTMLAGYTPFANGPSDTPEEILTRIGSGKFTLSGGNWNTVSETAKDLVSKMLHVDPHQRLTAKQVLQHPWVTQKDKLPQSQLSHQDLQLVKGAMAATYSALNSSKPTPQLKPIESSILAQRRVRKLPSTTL

[4] = target: T3, Ribosomal protein S6 kinase alpha-3 (Homo sapiens, UniProt P51812); experiment: Inhibition of full length recombinant His-tagged human RSK2 expressed in baculovirus expression system using biotin-labelled AGAGRSRHSSYPAGT-OH as substrate in presence of ATP
T3 sequence (P51812 whole entry): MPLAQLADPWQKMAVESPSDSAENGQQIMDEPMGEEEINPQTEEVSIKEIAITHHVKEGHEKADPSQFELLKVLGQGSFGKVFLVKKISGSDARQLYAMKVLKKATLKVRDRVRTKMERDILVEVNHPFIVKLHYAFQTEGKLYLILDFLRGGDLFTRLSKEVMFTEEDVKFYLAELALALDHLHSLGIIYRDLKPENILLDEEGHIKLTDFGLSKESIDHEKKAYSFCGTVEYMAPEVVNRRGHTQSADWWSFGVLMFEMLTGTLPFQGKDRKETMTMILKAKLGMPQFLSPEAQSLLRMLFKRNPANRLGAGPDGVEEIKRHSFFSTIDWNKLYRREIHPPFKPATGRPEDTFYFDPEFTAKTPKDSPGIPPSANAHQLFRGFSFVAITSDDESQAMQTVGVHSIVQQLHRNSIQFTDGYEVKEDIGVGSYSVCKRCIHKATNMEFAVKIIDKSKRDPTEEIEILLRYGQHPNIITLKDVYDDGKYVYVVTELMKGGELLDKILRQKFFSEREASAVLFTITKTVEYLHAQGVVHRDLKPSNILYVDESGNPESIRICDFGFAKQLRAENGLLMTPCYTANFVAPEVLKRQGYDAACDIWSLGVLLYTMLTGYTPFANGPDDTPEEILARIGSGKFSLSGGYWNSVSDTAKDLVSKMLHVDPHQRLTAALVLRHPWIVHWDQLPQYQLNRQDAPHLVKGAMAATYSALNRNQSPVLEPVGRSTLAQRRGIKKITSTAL

[5] = target: T3, Ribosomal protein S6 kinase alpha-3; experiment: Inhibition of RSK2 (unknown origin) at 100 nM relative to control
[6] = Toxicity in nude mouse xenografted with human TE-10 cells assessed as morphological changes in lung at 25 to 50 mg/kg, ip administered for 20 consecutive days by hematoxylin-eosin staining based analysis; assay type: organism-based; details: in vivo, 480 h, dose 25-50 mg/kg, time 20 day
[7] = Toxicity in nude mouse xenografted with human TE-10 cells assessed as morphological changes in liver at 25 to 50 mg/kg, ip administered for 20 consecutive days by hematoxylin-eosin staining based analysis; assay type: organism-based; details: in vivo, 480 h, dose 25-50 mg/kg, time 20 day
[8] = target: T2, Ribosomal protein S6 kinase alpha-1; experiment: Inhibition of RSK1 (unknown origin) at 100 nM relative to control
[9] = target: T1, Ribosomal protein S6 kinase alpha-2; experiment: Inhibition of RSK3 in human TE-10 cells assessed as suppression of c-fos phosphorylation at 1 to 10 uM measured after 24 hrs by Western blot analysis; assay type: cell-based; details: dose 1-10 µM
[10] = target: T1, Ribosomal protein S6 kinase alpha-2; experiment: Inhibition of RSK3 in human TE-10 cells assessed as suppression of HistoneH3 phosphorylation at residue 35 at 1 to 10 uM measured after 24 hrs by Western blot analysis; assay type: cell-based; details: dose 1-10 µM
[11] = Half life in iv dosed Sprague-Dawley rat; assay type: ADME, organism-based; details: in vivo
[12] = Volume of distribution at steady state in iv dosed Sprague-Dawley rat; assay type: ADME, organism-based; details: in vivo, read-out: Vdss
[13] = target: T3, Ribosomal protein S6 kinase alpha-3; experiment: Inhibition of RSK2 in human TE-10 cells assessed as suppression of HSP27 at residue 32 phosphorylation at 1 to 10 uM measured after 24 hrs by Western blot analysis; assay type: cell-based; details: dose 1-10 µM
[14] = target: T1, Ribosomal protein S6 kinase alpha-2; experiment: Inhibition of RSK3 in human TE-10 cells assessed as suppression of HistoneH3 phosphorylation at residue 34 at 1 to 10 uM measured after 24 hrs by Western blot analysis; assay type: cell-based; details: dose 1-10 µM
[15] = Toxicity in nude mouse xenografted with human TE-10 cells assessed as effect on organ damage at 25 to 50 mg/kg, ip administered for 20 consecutive days; assay type: organism-based; details: in vivo, 480 h, dose 25-50 mg/kg, time 20 day
TE-10 [16] = experiment: Antitumor activity against human TE-10 cells xenografed in nude mouse assessed as tumor growth inhibition at 25 mg/kg, ip administered for 20 consecutive days by caliper method relative to control; assay type: functional; details: TE-10, ip, 480 h, time 20 day, read-out: TGI
[17] = target: T3, Ribosomal protein S6 kinase alpha-3; experiment: Inhibition of RSK2 in human TE-10 cells assessed as suppression of creb-phosphorylation at 1 to 10 uM measured after 24 hrs by Western blot analysis; assay type: cell-based; details: dose 1-10 µM
[18] = Toxicity in nude mouse xenografted with human TE-10 cells assessed as effect on body weight loss at 25 to 50 mg/kg, ip administered for 20 consecutive days; assay type: organism-based; details: in vivo, 480 h, dose 25-50 mg/kg, time 20 day
[19] = target: T3, Ribosomal protein S6 kinase alpha-3; experiment: Inhibition of RSK2 in human TE-10 cells assessed as suppression of HSP27 at residue 33 phosphorylation at 1 to 10 uM measured after 24 hrs by Western blot analysis; assay type: cell-based; details: dose 1-10 µM
[20] = target: T2, Ribosomal protein S6 kinase alpha-1; experiment: Inhibition of RSK1 in human TE-10 cells assessed as suppression of EIF4B phosphorylation at 1 to 10 uM measured after 24 hrs by Western blot analysis; assay type: cell-based; details: dose 1-10 µM
Mus musculus [21] = experiment: In vivo inhibition of RSK4 in nude mouse xenografted with human TE-10 cells assessed as suppression of GSK3beta phosphorylation at 25 to 50 mg/kg, ip administered for 20 consecutive days; assay type: functional, organism-based; details: dose lower […], dose upper 50.0 mg/kg, time 20.0 day
TE-10 [22] = experiment: Antiproliferative activity against human TE-10 cells assessed as inhibition of cell proliferation measured up to 48 hrs by CCK-8 assay; assay type: functional, cell-based
[23] = target: T1, Ribosomal protein S6 kinase alpha-2; experiment: Inhibition of RSK3 (unknown origin) at 100 nM relative to control
[24] = target: T2, Ribosomal protein S6 kinase alpha-1; experiment: Inhibition of RSK1 in human TE-10 cells assessed as suppression of P27KIP1 phosphorylation at 1 to 10 uM measured after 24 hrs by Western blot analysis; assay type: cell-based; details: dose 1-10 µM
[25] = Toxicity in nude mouse xenografted with human TE-10 cells assessed as morphological changes in heart at 25 to 50 mg/kg, ip administered for 20 consecutive days by hematoxylin-eosin staining based analysis; assay type: organism-based; details: in vivo, 480 h, dose 25-50 mg/kg, time 20 day
TE-10 [26] = experiment: Inhibition of cell invasion in human TE-10 cells measured after 24 hrs by Giemsa staining based transwell invasion assay; assay type: functional; details: TE-10, 24 h
[27] = Toxicity in nude mouse xenografted with human TE-10 cells assessed as morphological changes in kidney at 25 to 50 mg/kg, ip administered for 20 consecutive days by hematoxylin-eosin staining based analysis; assay type: organism-based; details: in vivo, 480 h, dose 25-50 mg/kg, time 20 day
[28] = Clearance in iv dosed Sprague-Dawley rat; assay type: ADME, organism-based; details: in vivo
Mus musculus [29] = experiment: In vivo inhibition of RSK4 in nude mouse xenografted with human TE-10 cells assessed as suppression of RPS6 phosphorylation at 25 to 50 mg/kg, ip administered for 20 consecutive days; assay type: functional, organism-based; details: dose lower […], dose upper 50.0 mg/kg, time 20.0 day

Structure (SMILES): CC(C)CCN1c2nc(Nc3cc(F)c(O)c(F)c3)ncc2N(C)C(=O)C1C (centres undefined)
inhibition in vivo at 50 mg/kg (TE-10 [1]): 41.6%

IC50 [2]: 13 nM | IC50 [3]: 5 nM | IC50 [4]: 6 nM
Structure (SMILES): Oc1c(F)cc(-c2cnccc2-c2ccc(N3CCOCC3)cc2)cc1F

inhibition [5]: > 90% | inhibition [8]: > 90% | inhibition [9]: inactive | inhibition [10]: inactive | half-life [11]: 55.2 min | Vd [12]: 1.28 L/kg | inhibition [13]: inactive | inhibition [14]: inactive | inhibition [17]: inactive | inhibition [19]: inactive | inhibition [20]: inactive | inhibition [23]: > 90% | inhibition [24]: inactive | IC50 (TE-10 [26]): 983 nM | clearance [28]: 67.5 mL/min/kg
Structure (SMILES): CC(C)C1OC(=O)N(C2CCCC2)c2nc(Nc3cc(F)c(O)c(F)c3)ncc21 (centres undefined)
Activity [6]: Non-Toxic | Activity [7]: Non-Toxic | inhibition in vivo at 50 mg/kg (TE-10 [1]): 48.7% | Activity [15]: Non-Toxic | inhibition in vivo at 25 mg/kg (TE-10 [16]): 73.4% | Activity [18]: Non-Toxic | inhibition (Mus musculus [21]): inactive | IC50 (TE-10 [22]; TE-10, 48 h): 570 nM | inhibition (TE-10 [22]; time hrs <=48): Dose-Dependent Effect | Activity [25]: Non-Toxic | Activity [27]: Non-Toxic | inhibition (Mus musculus [29]): inactive

IC50 [2]: 4 nM | IC50 [3]: 6 nM | IC50 [4]: 4 nM
Structure (SMILES): CN1CCN(c2ccc(-c3ccncc3-c3cc(F)c(O)c(F)c3)cc2)CC1
